The experiment is described as follows: tasting of LC-MS fractions of the product of Example 1. The experiment is classed as in vivo. Particulars: fractions of the Example 1 product, content shown by 1H NMR. Here is the method: 30 g of ethyl lactate and 10 g of GMP were thoroughly mixed in 90 g of glycerol to obtain a clear solution. The mixture was heated under stirring at 120° C. for 1 hour. A white precipitate was formed at the end of the heating period. The mixture was cooled to 70° C. and 100 g of isopropyl alcohol was added followed by stirring. Next, the mixture was filtered over a glass filter and the filter residue was washed three times with 300 g isopropyl alcohol. Thus, 12 g of an almost white powder was obtained. The main taste components of the obtained product were identified using LC-MS and tasting different fractions.

On to O-lactoyl GMP, for which the “taste of the fractions containing the substance” value was ““long-lasting” and “kokumi””. Under `CC(O)C(=O)Nc1nc2c(ncn2[C@@H]2O[C@H](COP(=O)(O)O)[C@@H](O)[C@H]2O)c(=O)[nH]1` (some centres unmarked) [N-lactoyl GMP] stands ““long-lasting” and “kokumi””.

For the origin of these results see patent publication US7981457B2, “Taste improving substances” (Quest International B.V. & Quest International Services B.V., priority 2004, dated 2011).
